Earlier results in patent US20100183687A1, “PROCESS FOR PREPARING PARTICLES OF OPIOIDS AND COMPOSITIONS PRODUCED THEREBY” (priority 2009, published 2010).

Conditions: water

COc1ccc2c3c1O[C@H]1C(=O)CC[C@@]4(O)[C@@H](C2)N(C)CC[C@]314.Cl [oxycodone hydrochloride]
solubility at neutral pH: 100 mg/ml
